From ChEMBL document CHEMBL5625245, “Novel ProTide prodrugs of 5-fluoro-2'-deoxyuridine for the treatment of liver cancer” (Eur J Med Chem, 2023) come the findings set out here.

Series [1] can be described thus: Antiproliferative activity against human NCM460 cells assessed as reduction in cell viability measured after 48 to 72 hrs by MTT assay. It counts as toxicity, cell-based. (In general: Formazan colour is commonly taken as a measure of viable cells.)
Series [2] can be described thus: Toxicity in orthotopic mouse assessed as effect on heart at 60 mg/kg, iv administered twice daily for 18 days by H and E staining based analysis. It is filed as organism-based. The note with it: in vivo, 432 h, time 18 day.
Series [3] in a line: Solubility of the compound in 5% DMSO/10% cremophor EL/85% saline at 25 degreeC by HPLC analysis. It counts as physicochemical.
Series [4] concerns HepG2. In words: Antiproliferative activity against human HepG2 cells assessed as reduction in cell viability at 20 uM measured after 48 hrs by MTT assay relative to control. It counts as functional.
Series [5] in a line: Metabolic stability in rat liver homogenates assessed as half life at 1 mg/ml measured after 4 hrs by HPLC analysis. It is filed as ADME, tissue-based.
The nature of series [6]: Solubility of the compound in 100% saline at 25 degreeC by HPLC analysis. It counts as physicochemical.
The subject of series [7] is HepG2. In words: Antiproliferative activity against human HepG2 cells assessed as reduction in cell viability measured after 48 to 72 hrs by MTT assay. It counts as functional, cell-based.
A short description of series [8]: Drug metabolism in rat liver homogenate assessed as formation of (2S)-2-[[[(2R,3S,5R)-3-[(2S)-1-[(2S)-2-(tert-butoxycarbonylamino)-3-methyl-butanoyl]pyrrolidine-2-carbonyl]oxy-5-(5-fluoro-2,4-dioxo-pyrimidin-1-yl)tetrahydrofuran-2-yl]methoxy-hydroxy-phosphoryl]amino]propanoic acid measured after 20 mins. The note with it: tissue homogenate. It is filed as ADME, tissue-based.

Series [9] in a line: Toxicity in orthotopic mouse assessed as effect on lung at 60 mg/kg, iv administered twice daily for 18 days by H and E staining based analysis. It counts as organism-based. The note with it: in vivo, 432 h, time 18 day.
Series [10] is described as follows: Selectivity index, ratio of IC50 for human L02 cells to IC50 for human Bel-7402 cells. It is filed as toxicity. The conditions noted are these: L02 cells and Bel-7402 cells, read-out: Ratio IC50.
Series [11] concerns HepG2. In words: Antitumor activity against human HepG2 cells xenografted in orthotopic mouse model assessed as tumor growth inhibition at 60 mg/kg, iv administered twice daily for 18 days in presence of 5-Fluorouracil relative to control. It is filed as functional. The note with it: HepG2, 432 h, time 18 day, read-out: TGI. (A xenograft is tissue or cells of one species grown in another, often human tumour cells in immunodeficient mice.)

The nature of series [12]: Solubility of the compound in 5% DMSO/95% saline at 25 degreeC by HPLC analysis. It is filed as physicochemical.
The nature of series [13]: Metabolic stability in human plasma assessed as half life at 1 mg/ml measured upto 72 hrs by HPLC analysis. It counts as ADME, cell-free.
Series [14] in a line: Solubility of the compound in 2% DMSO/8% tween80/90% saline at 25 degreeC by HPLC analysis. It counts as physicochemical.
The nature of series [15]: Toxicity in orthotopic mouse assessed as effect on body weight at 60 mg/kg, iv administered twice daily for 18 days. It is filed as organism-based. The conditions noted are these: in vivo, 432 h, time 18 day.
Series [16] in a line: Solubility of the compound in 5% PEG300/95% saline at 25 degreeC by HPLC analysis. It is filed as physicochemical.
The nature of series [17]: Toxicity in orthotopic mouse assessed as effect on drug tolerance at 60 mg/kg, iv administered twice daily for 18 days. The conditions noted are these: in vivo, 432 h, time 18 day. It counts as organism-based.
In series [18] the test system is HepG2. In words: Antitumor activity against human HepG2 cells xenografted in orthotopic mouse model assessed as average number of tumor at 60 mg/kg, iv administered twice daily for 18 days in presence of 5-Fluorouracil (reference value: 49+/3.6 mM). It is filed as functional. The note with it: time 18 day.
The nature of series [19]: Solubility of the compound in 5% DMSO/10% Tween80/85% saline at 25 degreeC by HPLC analysis. It is filed as physicochemical.
Series [20] is described as follows: Toxicity in orthotopic mouse assessed as effect on kidney at 60 mg/kg, iv administered twice daily for 18 days by H and E staining based analysis. The conditions noted are these: in vivo, 432 h, time 18 day. It is filed as organism-based.
Series [21] can be described thus: Selectivity index, ratio of IC50 for human L02 cells to IC50 for human HepG2 cells. It counts as toxicity. The conditions noted are these: L02 cells and HepG2 cells, read-out: Ratio IC50.
A short description of series [22]: Drug metabolism in rat liver homogenate assessed as formation of (2S)-2-[[[(2R,3S,5R)-3-[(2S)-1-[(2S)-2-(tert-butoxycarbonylamino)-3-methyl-butanoyl]pyrrolidine-2-carbonyl]oxy-5-(5-fluoro-2,4-dioxo-pyrimidin-1-yl)tetrahydrofuran-2-yl]methoxy-hydroxy-phosphoryl]amino]propanoic acid measured after 120 mins. It is filed as ADME, tissue-based. The conditions noted are these: tissue homogenate, 2 h.

A short description of series [23]: Solubility of the compound in 5% DMSO/8% Tween80/87% saline at 25 degreeC by HPLC analysis. It counts as physicochemical.
The nature of series [24]: Toxicity in orthotopic mouse assessed as effect on spleen at 60 mg/kg, iv administered twice daily for 18 days by H and E staining based analysis. It is filed as organism-based. The conditions noted are these: in vivo, 432 h, time 18 day.
Series [25] is described as follows: Solubility of the compound in 5% PBS/95% saline at 25 degreeC by HPLC analysis. It is filed as physicochemical.
For series [26], the system named is Bel-7402. The series can be described thus: Antiproliferative activity against human Bel-7402 cells assessed as reduction in cell viability at 20 uM measured after 48 hrs by MTT assay relative to control. It is filed as functional.
Series [27] can be described thus: Solubility of the compound in 5% DMSO/10% PEG300/85% saline at 25 degreeC by HPLC analysis. It is filed as physicochemical.
Series [28] can be described thus: Solubility of the compound in 2% DMSO/10% tween80/88% saline at 25 degreeC by HPLC analysis. It counts as physicochemical.
The nature of series [29]: Metabolic stability in rat plasma assessed as half life at 1 mg/ml measured upto 72 hrs by HPLC analysis. It is filed as ADME, cell-free.
Series [30] in a line: Toxicity in orthotopic mouse assessed as change in liver weight at 60 mg/kg, iv administered twice daily for 18 days. The note with it: in vivo, 432 h, time 18 day. It is filed as organism-based.
Series [31] is described as follows: Antiproliferative activity against human L02 cells assessed as reduction in cell viability measured after 48 to 72 hrs by MTT assay. It counts as toxicity, cell-based.
For series [32], the system named is Bel-7402. The series can be described thus: Antiproliferative activity against human Bel-7402 cells assessed as reduction in cell viability measured after 48 to 72 hrs by MTT assay. It counts as functional, cell-based.
Series [33] is described as follows: Toxicity in orthotopic mouse assessed as effect on liver at 60 mg/kg, iv administered twice daily for 18 days by H and E staining based analysis. It is filed as organism-based. The note with it: in vivo, 432 h, time 18 day.
Series [34] deals with HepG2. The series can be described thus: Antitumor activity against human HepG2 cells xenografted in orthotopic mouse model assessed as tumor growth inhibition at 15 mg/kg, iv administered twice daily for 18 days relative to control. It counts as functional. The note with it: HepG2, 432 h, time 18 day, read-out: TGI.
Series [35] deals with HepG2. In words: Antitumor activity against human HepG2 cells xenografted in orthotopic mouse model assessed as average number of tumor at 15 mg/kg, iv administered twice daily for 18 days (reference value: 49+/3.6 mM). It is filed as functional. The conditions noted are these: time 18 day.
A short description of series [36]: Drug metabolism in rat liver homogenate assessed as (2S)-2-[[[(2R,3S,5R)-3-[(2S)-2-(tert-butoxycarbonylamino)propanoyl]oxy-5-(5-fluoro-2,4-dioxo-pyrimidin-1-yl)tetrahydrofuran-2-yl]methoxy-hydroxy-phosphoryl]amino]propanoic acid formation measured upto 90 mins. The note with it: tissue homogenate, 1.5 h. It counts as ADME, tissue-based.

≈ marks a conversion by molar mass, not a printed value. Some results are limits rather than exact numbers.

For `CC(C)OC(=O)[C@H](C)N[P@](=O)(OC[C@H]1O[C@@H](n2cc(F)c(=O)[nH]c2=O)C[C@@H]1OC(=O)[C@@H]1CCCN1C(=O)[C@@H](NC(=O)OC(C)(C)C)C(C)C)Oc1ccccc1`, the IC50 in series [1] is over 100 µM; in series [7] it was 0.54 µM; in series [31], over 100 µM; in series [32], 0.81 µM. Further, the Activity result is on record as “Non-Toxic” in [2]; 75.24% in series [4]; “Non-Toxic” in series [9]; “Non-Toxic” in series [15]; “Non-Toxic” in series [17]; “Non-Toxic” in series [20]. Further, the Activity result is recorded as “Non-Toxic” in series [24], over 70% in series [26], “Toxic” in series [30] and “Non-Toxic” in [33]. The solubility in series [3] is 5000 µg/mL (≈ 6.16 mM); in [6], under 1000 µg/mL; in series [12], under 1000 µg/mL; in series [14], under 5000 µg/mL; in [16] it was under 1000 µg/mL; in series [19] it was over 10000 µg/mL. Further, the solubility in series [23] is 5000 µg/mL (≈ 6.16 mM); in series [25] it was under 1000 µg/mL; in series [27], under 1000 µg/mL; in series [28], over 10000 µg/mL. For the same compound, the half-life at 1 mg/ml was 1.63 h in [5], over 48 h in [13] and over 48 h in series [29]. The Drug metabolism result in series [8] and in series [22] was “Metabolite_Detected” each time. Besides, the selectivity ratio in series [10] amounted to 205; in series [21], 307. Further, the inhibition in vivo at 60 mg/kg in series [11] was determined as 28.6%. The tumour count in series [18] came out at 35.

As to `O=c1[nH]cc(F)c(=O)[nH]1` [FLUOROURACIL], the IC50 in series [1] was over 100 µM; in series [7] it was over 100 µM; in [31], over 100 µM; in series [32] it was 36.5 µM. The results for the Activity in [4] and in [35] were 8.31% and 49 mM, respectively. In [34], the inhibition in vivo at 15 mg/kg was 0%.

On to `CC(C)OC(=O)[C@H](C)N[P@](=O)(OC[C@H]1O[C@@H](n2cc(F)c(=O)[nH]c2=O)C[C@@H]1OC(=O)[C@H](C)NC(=O)OC(C)(C)C)Oc1ccccc1`, for which the IC50 in series [1] is over 100 µM; in [7], 0.42 µM; in [31], over 100 µM; in series [32] it was 0.79 µM. Moreover, the Activity entry was “Non-Toxic” in series [2]; 83.61% in series [4]; “Non-Toxic” in series [9]; “Non-Toxic” in series [15]; “Non-Toxic” in series [17]; “Non-Toxic” in series [20]. In addition, the Activity entry in [24] is reported as “Non-Toxic”; in [26] it was 82.19%; in [30], “Toxic”; in series [33], “Non-Toxic”. For the same compound, the solubility was 5000 µg/mL (≈ 7.28 mM) in [3]; under 1000 µg/mL in [6]; under 1000 µg/mL in [12]; under 5000 µg/mL in series [14]; under 1000 µg/mL in [16]; over 10000 µg/mL in series [19]. Also, the solubility in series [23] was 5000 µg/mL (≈ 7.28 mM); in [25] it was under 1000 µg/mL; in series [27] it was under 1000 µg/mL; in series [28], over 10000 µg/mL. Further, the half-life at 1 mg/ml is 0.16 h in [5], over 48 h in series [13] and over 48 h in series [29]. For the same compound, the selectivity ratio in series [10] turned out to be 165; in series [21] it was 310. Moreover, the inhibition in vivo at 60 mg/kg in series [11] is 75.5%. In addition, the tumour count in series [18] was 12. The Drug metabolism entry in [36] is reported as “Metabolite_Detected”.

One may read the IC50 as the midpoint of a concentration-inhibition curve. The term solubility denotes the dissolved amount per volume that the medium holds. Lower therefore signals little dissolved substance. As usually defined, the half-life is how long it takes for the measured level to halve.
